According to patent US4361578A, “D-Homosteroids” (priority 1980, dated 1982):

Test system: 5α-reductase
Assay: Inhibition of 5α-reductase in vivo (castrated male rats, organ weights and LH/FSH after 10 daily doses)
Set-up: species or system albino rats
Procedure: The in vivo testing was carried out as follows:
Adult male albino rats weighing 200 g were castrated. Two hours later they received the first of 10 daily dosages of the test substance suspended in 0.5% carboxymethylcellulose, 0.4% Tween 80 and 0.9% benzyl alcohol in physiological sodium chloride solution. Three hours after the last medication on the tenth day of treatment, the animals were decapitated, the blood from the body was collected, and the seminal vesicles, the ventral prostate and the Levator ani muscle were removed and weighed. The results are given as ng of NIAMDD-RP-1/ml.
VP: Ventral prostrate, SV: Seminal vesicle, MLA: Levator ani muscle
LH: Luteinizing hormone, FSH: Follicle stimulating hormone

[1] = T sc 0.5 mg/kg alone, experiment with F
[2] = T sc 0.5 mg/kg alone, experiment with L po
[3] = Testosterone sc 0.5 mg/kg alone, experiment with D
[4] = TP 0.5 mg/kg alone, experiment with A
[5] = TP sc 0.5 mg/kg alone, experiment with L sc
[6] = A sc 15 mg/kg + TP sc 0.5 mg/kg
[7] = L sc 15 mg/kg + TP sc 0.5 mg/kg

SMILES: C[C@]12CC[C@H]3[C@@H](CCC4=CC(=O)CC[C@@]43C)[C@@H]1CC[C@@H]2O [T, Testosterone]
- LH (luteinizing hormone) [1]: 96 ± 37 ng/mL
- MLA (Levator ani muscle weight) [1]: 126 ± 7 mg
- SV (seminal vesicle weight) [1]: 85 ± 7 mg
- VP (ventral prostate weight) [1]: 128 ± 12 mg
- MLA (Levator ani muscle weight) [2]: 109 ± 8 mg
- SV (seminal vesicle weight) [2]: 92 ± 13 mg
- VP (ventral prostate weight) [2]: 96 ± 10 mg
- FSH (follicle stimulating hormone) [3]: 1206 ± 114 ng/mL
- LH (luteinizing hormone) [3]: 104 ± 25 ng/mL
- MLA (Levator ani muscle weight) [3]: 108 ± 5 mg
- SV (seminal vesicle weight) [3]: 65 ± 5 mg
- VP (ventral prostate weight) [3]: 112 ± 10 mg

SMILES: CCC(=O)O[C@H]1CC[C@H]2[C@@H]3CCC4=CC(=O)CC[C@]4(C)[C@H]3CC[C@]12C [TP, Testosterone propionate]
- FSH (follicle stimulating hormone) [4]: 783 ± 167 ng/mL
- LH (luteinizing hormone) [4]: 101 ± 36 ng/mL
- MLA (Levator ani muscle weight) [4]: 137 ± 7 mg
- SV (seminal vesicle weight) [4]: 215 ± 13 mg
- VP (ventral prostate weight) [4]: 160 ± 18 mg
- FSH (follicle stimulating hormone) [5]: 915 ± 37 ng/mL
- LH (luteinizing hormone) [5]: 121 ± 12 ng/mL
- MLA (Levator ani muscle weight) [5]: 75 ± 4 mg
- SV (seminal vesicle weight) [5]: 69 ± 3 mg
- VP (ventral prostate weight) [5]: 108 ± 6 mg

SMILES: C[C@]12CC[C@H]3[C@@H](CCC4=CC(=O)CC[C@@]43C)[C@@H]1CCC[C@@H]2C(=O)O [Test substance A, 3-oxo-D-homo-androst-4-ene-17aα-carboxylic acid]
- FSH (follicle stimulating hormone) [6]: 1268 ± 125 ng/mL
- LH (luteinizing hormone) [6]: 283 ± 41 ng/mL
- MLA (Levator ani muscle weight) [6]: 118 ± 8 mg
- SV (seminal vesicle weight) [6]: 157 ± 15 mg
- VP (ventral prostate weight) [6]: 116 ± 11 mg

SMILES: COC(=O)[C@H]1CCC[C@H]2[C@@H]3CCC4=C(Cl)C(=O)CC[C@]4(C)[C@H]3CC[C@]12C [Test substance D, methyl 4-chloro-3-oxo-D-homo-androst-4-ene-17aβ-carboxylate]
- FSH (follicle stimulating hormone) (D sc 10 mg/kg + T sc 0.5 mg/kg): 1325 ± 93 ng/mL
- LH (luteinizing hormone) (D sc 10 mg/kg + T sc 0.5 mg/kg): 244 ± 45 ng/mL
- MLA (Levator ani muscle weight) (D sc 10 mg/kg + T sc 0.5 mg/kg): 83 ± 6 mg
- SV (seminal vesicle weight) (D sc 10 mg/kg + T sc 0.5 mg/kg): 51 ± 9 mg
- VP (ventral prostate weight) (D sc 10 mg/kg + T sc 0.5 mg/kg): 95 ± 10 mg

SMILES: C[C@]12CCC(=O)C=C1CC[C@@H]1[C@@H]2CC[C@@]2(C)[C@H]1CC=C[C@@]21CCCO1 [Test substance F, 4,5-dihydrospiro[furan-2(3H),17'a(β1)-D-homo-androsta-4,16-dien]-3'-one]
- LH (luteinizing hormone) (F sc 10 mg/kg + T sc 0.5 mg/kg): 88 ± 15 ng/mL
- MLA (Levator ani muscle weight) (F sc 10 mg/kg + T sc 0.5 mg/kg): 105 ± 6 mg
- SV (seminal vesicle weight) (F sc 10 mg/kg + T sc 0.5 mg/kg): 66 ± 4 mg
- VP (ventral prostate weight) (F sc 10 mg/kg + T sc 0.5 mg/kg): 93 ± 10 mg

SMILES: COC(=O)C1=CCC[C@H]2[C@@H]3CCC4=CC(=O)CC[C@]4(C)[C@H]3CC[C@]12C [Test substance L, methyl 3-oxo-D-homo-androsta-4,17-diene-17a-carboxylate]
- MLA (Levator ani muscle weight) (L po 30 mg/kg + T sc 0.5 mg/kg): 88 ± 17 mg
- SV (seminal vesicle weight) (L po 30 mg/kg + T sc 0.5 mg/kg): 68 ± 13 mg
- VP (ventral prostate weight) (L po 30 mg/kg + T sc 0.5 mg/kg): 81 ± 16 mg
- FSH (follicle stimulating hormone) [7]: 1099 ± 94 ng/mL
- LH (luteinizing hormone) [7]: 163 ± 30 ng/mL
- MLA (Levator ani muscle weight) [7]: 67 ± 6 mg
- SV (seminal vesicle weight) [7]: 52 ± 1 mg
- VP (ventral prostate weight) [7]: 80 ± 6 mg
